EC50 data for twelve compounds are collected here from patent publication US8853213B2, “Bicyclic compound for modulating G protein-coupled receptors” (Hanmi Pharm. Co., Ltd, priority 2011, dated 2014).

The target in the assay is T1, GPR119 (Homo sapiens, UniProt Q8TDV5).
T1 construct: host or cells: CHO-K1 (CRE-bla reporter, doxycycline-induced)
T1 sequence (Q8TDV5 1-335): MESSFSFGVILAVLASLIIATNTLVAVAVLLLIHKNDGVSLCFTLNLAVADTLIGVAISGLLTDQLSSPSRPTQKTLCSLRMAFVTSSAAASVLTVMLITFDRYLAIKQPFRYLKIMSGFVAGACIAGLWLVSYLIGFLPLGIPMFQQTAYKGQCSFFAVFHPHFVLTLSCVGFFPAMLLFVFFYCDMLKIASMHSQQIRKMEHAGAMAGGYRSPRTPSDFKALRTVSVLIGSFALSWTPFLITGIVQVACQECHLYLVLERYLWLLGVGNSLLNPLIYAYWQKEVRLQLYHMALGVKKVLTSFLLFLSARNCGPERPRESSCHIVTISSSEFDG
Briefly: Controlling Effect of GPR119 in CRE-bla CHO-K1 Cells (EC50). The class given is cell-based. To be noted: GPR119 CRE-bla CHO-K1 cell line, 5 hr incubation with compound, β-lactamase LiveBLAzer-FRET B/G readout; read-out: controlling effect against GPR119 in CRE-bla CHO-K1 cell line (EC50). On the procedure:
Controlling Effect of GPR119 in CRE-bla CHO-K1 Cells (EC50)
The day before the experiment, GPR119 CRE-bla CHO-K1 cell line purchased from Invitrogen was seeded in a 96 black well plate in an amount of 80 μl at a density of 5×10^4 cells. After the seeding, 10 μl of doxycycline in a concentration of 1 μg/ml was added to each well and incubated in an incubator at 37° C. under 5% CO2 for about 16 to 20 hr.
The day of experiment, sample compounds were performed a 10-fold serial dilution with a culture medium at various concentrations of 1 uM to […]. Considering that the culture medium used in the seeding and doxycycline are together applied, the sample compounds were diluted to a 5-fold dilution of the planned concentration. 20 μl of the compound diluted with the culture medium was added to each well and incubated in the incubator for 5 hr. The compound-untreated group was added with 20 μl of 0.5% dimethyl sulfoxide (DMSO) diluted with the culture medium. After 5 hr from the incubation, substrate mixture of a 6-fold concentration were prepared; 6 μl of 1 mM LiveBLAzer™-FRET B/G(CCF4-AM) substrate, 60 μl of solution B, 904 μl of solution C and 30 μl of solution D. 12 μl of the substrate mixture was added to each well and allowed to be kept at room temperature for 2 hr with shading the light. Fluorescence intensity value of blue channel and green channel was determined by a fluorescence microplate reader at 409 nm/460 nm and 409 nm/[…] (excitation/emission), respectively. In order to confirm the controlling effect of the inventive compounds against GPR119, EC50 (half maximal effective concentration) was determined based on the determined values. EC50, the concentration at which 50% activity of β-lactamase, was determined according to the following Equation: Equation=[(Ti−Tz)/(C−Tz)]×100
[Wherein, Ti: Cell density of the compound-treated group; Tz: Cell density of the negative control group; and C: Cell density of the positive control group]
For `CC(C)c1noc(C2CCN(c3ncnc4c(-c5ccc(C(=O)O)cc5)csc34)CC2)n1` [Example 15, 4-{4-[4-(3-isopropyl-[1,2,4]oxadiazol-5-yl)-piperidin-1-yl]-thieno[3,2-d]pyrimidin-7-yl}-benzoic acid], the EC50 is 100 to 1000 nM.
Regarding `COC(=O)c1ccc(-c2csc3c(N4CCC(c5nc(C(C)C)no5)CC4)ncnc23)cc1` [Example 16, 4-{4-[4-(3-isopropyl-[1,2,4]oxadiazol-5-yl)-piperidin-1-yl]-thieno[3,2-d]pyrimidin-7-yl}-benzoic acid methyl ester], the EC50 fell in the range of 100 to 1000 nM.
The value for `CC(C)(C)c1noc(C2CCN(c3ncnc4c(-c5ccc(S(C)(=O)=O)cc5F)csc34)CC2)n1` [Example 17, 4-[4-(3-tert-butyl-[1,2,4]oxadiazol-5-yl)-piperidin-1-yl]-7-(2-fluoro-4-methanesulfonyl-phenyl)-thieno[3,2-d]pyrimidine] was below 100 nM; that for `CS(=O)(=O)c1ccc(-c2csc3c(N4CCC(c5nc(C6CC6)no5)CC4)ncnc23)c(F)c1` [Example 18, 4-[4-(3-cyclopropyl-[1,2,4]oxadiazol-5-yl)-piperidin-1-yl]-7-(2-fluoro-4-methanesulfonyl-phenyl)-thieno[3,2-d]pyrimidine] was below 100 nM.
The value for `CS(=O)(=O)c1ccc(-c2csc3c(N4CCC(c5nc(C6CCCC6)no5)CC4)ncnc23)c(F)c1` [Example 19, 4-[4-(3-cyclopentyl-[1,2,4]oxadiazol-5-yl)-piperidin-1-yl]-7-(2-fluoro-4-methanesulfonyl-phenyl)-thieno[3,2-d]pyrimidine] was below 100 nM; that for `CCCS(=O)(=O)c1ccc(-c2csc3c(N4CCC(c5nc(C(C)C)no5)CC4)ncnc23)cc1` [Example 20, 4-[4-(3-isopropyl-[1,2,4]oxadiazol-5-yl)-piperidin-1-yl]-7-(4-(propylsulfonyl)phenyl)-thieno[3,2-d]pyrimidine] was below 100 nM; that for `CC(C)c1noc(C2CCN(c3ncnc4c(-c5ccc(S(=O)(=O)C6CC6)cc5)csc34)CC2)n1` [Example 21, 7-(4-(cyclopropylsulfonyl)phenyl)-4-[4-(3-isopropyl-[1,2,4]oxadiazol-5-yl)-piperidin-1-yl]-thieno[3,2-d]pyrimidine] was below 100 nM.
In the case of `CC(C)c1noc(C2CCN(c3ncnc4c(-c5ccc(S(=O)(=O)C(C)C)cc5)csc34)CC2)n1` [Example 22, 4-[4-(3-isopropyl-[1,2,4]oxadiazol-5-yl)-piperidin-1-yl]-7-(4-(isopropylsulfonyl)phenyl)-thieno[3,2-d]pyrimidine], the EC50 is below 100 nM.
Take `CC(C)c1noc(C2CCN(c3ncnc4c(-c5ccc(S(=O)(=O)C6CCCC6)cc5)csc34)CC2)n1` [Example 23, 7-(4-(cyclopentylsulfonyl)phenyl)-4-[4-(3-isopropyl-[1,2,4]oxadiazol-5-yl)-piperidin-1-yl]-thieno[3,2-d]pyrimidine]: the EC50 was below 100 nM.
`CCCS(=O)(=O)c1ccc(-c2csc3c(N4CCC(c5nc(C(C)C)no5)CC4)ncnc23)c(F)c1` [Example 24, 7-4-(2-fluoro-(4-propylsulfonyl)phenyl)-4-[4-(3-isopropyl-[1,2,4]oxadiazol-5-yl)-piperidin-1-yl]-thieno[3,2-d]pyrimidine]: the EC50 is below 100 nM.
Turning to `Cn1cc(-c2ccc(S(C)(=O)=O)cc2)c2ncnc(OC3CCN(C(=O)OC(C)(C)C)CC3)c21` [Example 25, tert-butyl 4-(5-methyl-7-(4-methanesulfonyl-phenyl)-5H-pyrrolo[3,2-d]pyrimidin-4-yloxy)piperidine-1-carboxylate], the EC50 is below 100 nM.
The same measure for `Cn1cc(-c2ccc(S(C)(=O)=O)cc2)c2ncnc(OC3CCNCC3)c21` [Example 26, 5-methyl-7-(4-methanesulfonyl-phenyl)-4-(piperidin-4-yloxy)-5H-pyrrolo[3,2-d]pyrimidine]: above 1000 nM.

For orientation: EC50 means the midpoint of the concentration-response curve.
